Test results from patent publication US12109294B2, “Oily moisturizer and topical skin composition containing same” (The Nisshin OilliO Group, Ltd., priority 2018, dated 2024).

Test system: skin stratum corneum (forearm)
Experiment: Evaluation test of moisture retention effect upon single application of esterified product (stratum corneum moisture content, SKICON-200)
Assay type: in vivo, human
Source text: The moisture content of the stratum corneum can be investigated using the electrical conductivity (μS) of the stratum corneum. The electrical conductivity (μS) of the stratum corneum is dependent on the water content of the stratum corneum, and the greater the moisture content of the stratum corneum, the larger the electrical conductivity (μS) of the stratum corneum becomes. The electrical conductivity (μS) of the stratum corneum can be measured by a constant-pressure sensor probe contact high-frequency conductance exchange method. Specifically, the electrical conductivity (μS) of the stratum corneum can be measured by using a stratum corneum moisture content measuring device based on the above measurement method, such as a stratum comeum moisture content measuring device “SKICON-200” manufactured by IBS Co., Ltd.
After maintaining the state with the oily moisturizer applied to the skin for a certain period, for example 30 to 90 minutes, the oily moisturizer is removed from the skin surface. […] Using the obtained values for the electrical conductivity (uS) of the stratum corneum before and after application of the oily moisturizer, the moisture retention effect value is calculated and the moisture retention effect is evaluated. […]
Subsequently, 40 μL of the test sample being evaluated was applied uniformly to the square measurement region of the forearm. […]

**Q.** What does the source list for `OCC(O)CO` [glycerol]?
**A.** Increase in the electrical conductivity that corresponds with the moisture retention effect value (60 minutes after application, still applied to the skin surface, prior to removal using water): 477 μS; Moisture retention effect value (single application, removal with cotton swab immersed in water rather than hexane): 8 μS
